Experimental data: article PMC5693942 (Scientific Reports, 2017)
Values after ≈ are worked out from the molar mass of the structure shown. Read-outs that look alike come from different tables or passages of the source. Each block holds one compound with its values, some of them ahead of it.

Experiments:
Daphnia magna = Daphnia magna acute 48 h immobilization assay (Daphtoxkit); type: in vivo; conditions: for Average effect (N immobile, 5 daphnids per replicate): 48 h;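 as to Average effect (N immobile, 5 daphnids per replicate): test concentrations in mg per L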
Protocol: Six concentration levels (5 concentrations plus control, four replicate beakers for each concentrations, five individual for each beaker) were tested. […] Each experiment was repeated in triplicate.

Tetrahymena thermophila = experiment: microbe, parasite or virus in culture; type: cell-based
Protocol: The tests were performed in accordance with the protocols provided by the manufacturer. […] The tests were carried out in disposable spectrophotometric cells of 1 cm path-length, to enable the measurement of the optical density (OD) at 440 nm. […] This change in OD over the time period is used to quantify the degree of inhibition and subsequent calculation of the EC50. Each concentration was repeated in duplicate.

[1] = Activated sludge simulating microcosms (degradation of FL, formation of NFL); type: physicochemical
Protocol: Activated sludge microcosm experiments were conducted in the dark and aerobic conditions. Three microcosm bioreactors were investigated in duplicate. They were filled with 2 L of fresh activated sludge collected from a local wastewater treatment plant. […] Dark conditions were simulated by covering up the flask with foil. Aerobic conditions were obtained using air from BOC air cylinder and a thorough mixing was maintained using magnetic stirrers. The experiment was 24 hours long. […] Collected samples were subsequently frozen until their analysis to prevent degradation of compounds.
The compounds studied are characterized as having low volatility and therefore volatilization was not considered as a potential removal pathway in studied microcosms. Photodegradation was also not considered (not relevant) under tested activated sludge conditions. Therefore the two important degradation mechanisms to consider were biodegradation and sorption to sludge. […] However, in this study, sorption equilibrium was assumed and therefore sorption could be considered negligible. This is because sorption is assumed to be fast when compared to biological degradation.
Several reports utilized pseudo-first-order kinetics for degradation of micropollutants in activated sludge reactors[48]–[50]. […] Pseudo-first order biodegradation rate k1 [L g^−1h^−1]

[2] = River water simulating microcosms (degradation of FL)

- Concentration ([1]; 10 µg L-1 microcosm, time 0): 0.127 ± 0.015 ng/mL
- Concentration ([1]; 10 µg L-1 microcosm, time 0.5): 0.057 ± 0.006 ng/mL
- Concentration ([1]; 10 µg L-1 microcosm, time 1.5): 0.010 ± 0.000 ng/mL
- Concentration ([1]; 10 µg L-1 microcosm, time 2): 0.151 ± 0.068 ng/mL
- Concentration ([1]; 10 µg L-1 microcosm, time 3): 0.222 ± 0.038 ng/mL
- Concentration ([1]; 10 µg L-1 microcosm, time 5): 0.384 ± 0.053 ng/mL
- Concentration ([1]; 10 µg L-1 microcosm, time 8): 0.315 ± 0.016 ng/mL
- Concentration ([1]; 10 µg L-1 microcosm, time 12): 0.562 ± 0.219 ng/mL
- Concentration ([1]; 10 µg L-1 microcosm, time 24): 0.510 ± 0.059 ng/mL
- Concentration ([1]; 100 µg L-1 microcosm, time 0): 0.553 ± 0.146 ng/mL
- Concentration ([1]; 100 µg L-1 microcosm, time 0.5): 0.538 ± 0.149 ng/mL
- Concentration ([1]; 100 µg L-1 microcosm, time 1): 0.737 ± 0.154 ng/mL
- Concentration ([1]; 100 µg L-1 microcosm, time 1.5): 0.981 ± 0.052 ng/mL
- Concentration ([1]; 100 µg L-1 microcosm, time 2): 1.890 ± 0.622 ng/mL
- Concentration ([1]; 100 µg L-1 microcosm, time 3): 2.515 ± 1.049 ng/mL
- Concentration ([1]; 100 µg L-1 microcosm, time 5): 3.535 ± 1.300 ng/mL
- Concentration ([1]; 100 µg L-1 microcosm, time 8): 3.844 ± 1.117 ng/mL
- Concentration ([1]; 100 µg L-1 microcosm, time 12): 5.346 ± 0.464 ng/mL
- Concentration ([1]; 100 µg L-1 microcosm, time 24): 5.046 ± 0.415 ng/mL
- Concentration ([2]; DBR (dark biotic), day 3): 0.001 ± 0.000 ng/mL
- Concentration ([2]; DBR (dark biotic), day 5): 0.001 ± 0.000 ng/mL
- Concentration ([2]; LAR (light abiotic), day 3): 0.002 ± 0.001 ng/mL
- Concentration ([2]; LAR (light abiotic), day 4): 0.001 ± 0.000 ng/mL
- Concentration ([2]; LAR (light abiotic), day 12): 0.002 ± 0.001 ng/mL
- Concentration ([2]; LAR (light abiotic), day 16): 0.001 ± 0.000 ng/mL
- Concentration ([2]; LBR (light biotic), day 3): 0.001 ± 0.000 ng/mL
- Concentration ([2]; LBR (light biotic), day 5): 0.001 ± 0.000 ng/mL
SMILES: NCC[C@H](Oc1ccc(C(F)(F)F)cc1)c1ccccc1 [(S)-NFL]
- Average effect (N immobile, 5 daphnids per replicate) (Daphnia magna; concentration 0.5): 0.25
- Average effect (N immobile, 5 daphnids per replicate) (Daphnia magna; concentration 1.5): 1
- Average effect (N immobile, 5 daphnids per replicate) (Daphnia magna; concentration 5): 4
- Average effect (N immobile, 5 daphnids per replicate) (Daphnia magna; concentration 16): 5
- Average effect (N immobile, 5 daphnids per replicate) (Daphnia magna; concentration 50): 5
- EC50 (Daphnia magna; Daphnia magna, D. magna, this study, read-out: EC50_48h -immobilization): 2.8 µg/mL (≈ 9.48 µM)
- times more toxic than (S)-FL (Tetrahymena thermophila; Tetrahymena thermophila): 10 ×
- EC50 (Tetrahymena thermophila; Tetrahymena thermophila, T. thermophila, this study, read-out: EC50_24h -growth): 3.8 µg/mL (≈ 12.9 µM)
- EC50 (Tetrahymena thermophila; Tetrahymena thermophila, definitive test, read-out: 24hEC50): 4.48 µg/mL (≈ 15.2 µM)
- EC50 (Tetrahymena thermophila; Tetrahymena thermophila, range test, read-out: 24hEC50): 1.98 µg/mL (≈ 6.71 µM)
- % I (percentage inhibition) (Tetrahymena thermophila; definitive test, conc. 0.093): 7.356%
- % I (percentage inhibition) (Tetrahymena thermophila; definitive test, conc. 0.279): 12.473%
- % I (percentage inhibition) (Tetrahymena thermophila; definitive test, conc. 9.302): 28.891%
- % I (percentage inhibition) (Tetrahymena thermophila; definitive test, conc. 15.352): 47.228%
- % I (percentage inhibition) (Tetrahymena thermophila; definitive test, conc. 24.562): 80.171%
- % I (percentage inhibition) (Tetrahymena thermophila; definitive test, conc. 50.660): 101.066%
- % I (percentage inhibition) (Tetrahymena thermophila; definitive test, conc. 76.758): 104.371%
- % I (percentage inhibition) (Tetrahymena thermophila; range test, conc. 0.005): 34.102%
- % I (percentage inhibition) (Tetrahymena thermophila; range test, conc. 0.050): 7.524%
- % I (percentage inhibition) (Tetrahymena thermophila; range test, conc. 0.500): 10.316%
- % I (percentage inhibition) (Tetrahymena thermophila; range test, conc. 5.000): 39.684%
- % I (percentage inhibition) (Tetrahymena thermophila; range test, conc. 50.000): 105.825%

- EF ([1]; 10 µg L-1 microcosm, time 0): 0.784
- EF ([1]; 10 µg L-1 microcosm, time 0.5): 0.663
- EF ([1]; 10 µg L-1 microcosm, time 1): 0.000
- EF ([1]; 10 µg L-1 microcosm, time 1.5): 0.887
- EF ([1]; 10 µg L-1 microcosm, time 2): 0.750
- EF ([1]; 10 µg L-1 microcosm, time 3): 0.839
- EF ([1]; 10 µg L-1 microcosm, time 5): 0.810
- EF ([1]; 10 µg L-1 microcosm, time 8): 0.856
- EF ([1]; 10 µg L-1 microcosm, time 12): 0.749
- EF ([1]; 10 µg L-1 microcosm, time 24): 0.752
- enantiomeric fraction (EF) ([1]; 10 µg L^−1 reactor, after further slow removal): > 0.7
- EF ([1]; 100 µg L-1 microcosm, time 0): 0.833
- EF ([1]; 100 µg L-1 microcosm, time 0.5): 0.826
- EF ([1]; 100 µg L-1 microcosm, time 1): 0.858
- EF ([1]; 100 µg L-1 microcosm, time 1.5): 0.872
- EF ([1]; 100 µg L-1 microcosm, time 2): 0.848
- EF ([1]; 100 µg L-1 microcosm, time 3): 0.852
- EF ([1]; 100 µg L-1 microcosm, time 5): 0.851
- EF ([1]; 100 µg L-1 microcosm, time 8): 0.843
- EF ([1]; 100 µg L-1 microcosm, time 12): 0.864
- EF ([1]; 100 µg L-1 microcosm, time 24): 0.794
- enantiomeric fraction (EF) ([1]; 100 µg L^−1 microcosm): > 0.7
- EF ([2]; DAR (dark abiotic), day 5): 0.000
- EF ([2]; DBR (dark biotic), day 1): 0.000
- EF ([2]; DBR (dark biotic), day 3): 0.333
- EF ([2]; DBR (dark biotic), day 5): 0.417
- EF ([2]; LAR (light abiotic), day 2): 0.000
- EF ([2]; LAR (light abiotic), day 3): 0.358
- EF ([2]; LAR (light abiotic), day 4): 0.250
- EF ([2]; LAR (light abiotic), day 5): 0.000
- EF ([2]; LAR (light abiotic), day 8): 0.000
- EF ([2]; LAR (light abiotic), day 9): 0.000
- EF ([2]; LAR (light abiotic), day 10): 0.000
- EF ([2]; LAR (light abiotic), day 11): 0.000
- EF ([2]; LAR (light abiotic), day 12): 0.225
- EF ([2]; LAR (light abiotic), day 15): 0.000
- EF ([2]; LAR (light abiotic), day 16): 0.225
- EF ([2]; LBR (light biotic), day 1): 0.000
- EF ([2]; LBR (light biotic), day 2): 0.000
- EF ([2]; LBR (light biotic), day 3): 0.292
- EF ([2]; LBR (light biotic), day 5): 0.292
SMILES: NCCC(Oc1ccc(C(F)(F)F)cc1)c1ccccc1 (stereo not drawn) [NFL, norfluoxetine]
